Strand notation (5' to 3'): a small letter for the sugar, then the base; units joined by * are phosphorothioate-linked, units joined directly phosphodiester-linked; [ ] holds rarer units or linkages, { } end groups; capitals alone tell only the bases. k = constrained ethyl (cEt); [5mC] = 5-methylcytosine; d = 2'-deoxy (DNA)
Assays:
CAL33 xenograft tumor = test: Tumor volume and tumor weight in CAL33 xenograft tumor model (Example 29); format: in vivo, human; conditions: 50 mg/kg twice weekly for two weeks; for Average Tumor weight: CAL33 xenograft mice, end of study; for Average Tumor Volume: CAL33 xenografts
Procedure: A xenograft tumor model was used to evaluate activity of modified oligonucleotides targeted to human Yap1. One million CAL33 cells in 30% matrigel were implanted subcutaneously into the flanks of female CrTac:NCr-Foxnlnu (Taconic) mice. When tumors reached an average volume of 100 mm^3, approximately two weeks post-implantation, groups of eight mice were administered at 50 mg/kg twice weekly with modified oligonucleotides for two weeks. ION 792169 was administered as a control.
Tumor volume was measured at the indicated days in the table below. Tumor weight was determined at end of study. Mice were sacrificed when tumors from PBS-treated mice reached 2,000 mm3.

Yap1 mRNA [1] = test: Yap1 mRNA in NCI H747 cells, RNA analysis (Example 31); format: cell-based, human; conditions: free uptake, approximately 48 hours
Procedure: Modified oligonucleotides described in the studies above were tested at various doses in colorectal adenocarcinoma cell line NCI H747. A control oligonucleotide 792169 was also tested.
(§1) Cultured NCI H747 cells at a density of 10,000 cells per well were treated using free uptake with modified oligonucleotides diluted to concentrations described in the tables below. After approximately 48 hours, Yap1 mRNA levels were measured as previously described using the Human Yap1 primer-probe set RTS4814. Yap1 mRNA levels were normalized to actin-beta content, as measured by primer probe set RTS5002. Results are presented in the tables below as percent control of the amount of Yap1 mRNA relative to untreated control cells (% UTC).

Yap1 mRNA [2] = test: Yap1 mRNA in SCC-9 cells, RNA analysis (Example 40); format: cell-based, human; conditions: free uptake, approximately 48 hours
Procedure: Modified oligonucleotides described in the studies above were tested at various doses in tongue squamous cell carcinoma cell line SCC-9. A control oligonucleotide 792169, described herein above, was also tested.
as §1, with “SCC-9” for “NCI H747”, “5000” for “10,000”

Yap1 mRNA [3] = test: Yap1 mRNA in SNU-899 cells, RNA analysis (Example 43); format: cell-based, human; conditions: free uptake, approximately 48 hours
Procedure: Modified oligonucleotides described in the studies above were tested at various doses in laryngeal squamous cell carcinoma cell line SNU-899. A control oligonucleotide 792169, described herein above, was also tested.
as §1, with “SNU-899” for “NCI H747”, “5000” for “10,000”

ERK1/2 = test: Measurement of ERK activation (pERK/ERK) in SNU449 xenograft model with sorafenib (second Example 30); format: in vivo, human; conditions: SNU449 xenograft tumors, pERK/ERK relative to PBS control, oligonucleotide 50 mg/kg, sorafenib 30 mg/kg orally
Procedure: Five million SNU449 cells in 30% matrigel were implanted subcutaneously into the fatpads of female NOD.Cg-Prkdcscid II2rgtmlWjl/SzJ mice (from Jackson Laboratory) at 4-6 weeks of age. 43 days post implantation (when tumors had reached approximately 100 mm^3 in size), groups of eight mice each were administered with 50 mg/kg modified oligonucleotide daily for 10 days (loading dose), following which they were administered with 50 mg/kg modified oligonucleotide four times a week for one week, following which they were dosed with 50 mg/kg modified oligonucleotide thrice weekly until the end of the study.
Protein analysis was carried out using standard procedures. […] ERK protein levels were compared to internal control GAPDH. […] The secondary antibody used was donkey anti-rabbit NA934, GE Healthcare. pERK/ERK levels were calculated relative to PBS control to determine % activation of ERK1/2.

| Substance | Average Tumor weight (CAL33 xenograft tumor) [g] | Average Tumor Volume (CAL33 xenograft tumor; day 10 post-implantation) [mm^3] | Average Tumor Volume (CAL33 xenograft tumor; day 13 post-implantation) [mm^3] | Average Tumor Volume (CAL33 xenograft tumor; day 17 post-implantation) [mm^3] | Average Tumor Volume (CAL33 xenograft tumor; day 21 post-implantation) [mm^3] | Average Tumor Volume (CAL33 xenograft tumor; day 24 post-implantation) [mm^3] | Average Tumor Volume (CAL33 xenograft tumor; day 27 post-implantation) [mm^3] | Average Tumor Volume (CAL33 xenograft tumor; day 31 post-implantation) [mm^3] | Average Tumor Volume (CAL33 xenograft tumor; day 34 post-implantation) [mm^3] | Average Tumor Volume (CAL33 xenograft tumor; day 38 post-implantation) [mm^3] | Average Tumor Volume (CAL33 xenograft tumor; day 40 post-implantation) [mm^3] | Average Tumor Volume (CAL33 xenograft tumor; day 44 post-implantation) [mm^3] | human Yap1 mRNA expression (Yap1 mRNA [1]; 0.04 μM) [% UTC] | human Yap1 mRNA expression (Yap1 mRNA [1]; 0.2 μM) [% UTC] | human Yap1 mRNA expression (Yap1 mRNA [1]; 1 μM) [% UTC] | human Yap1 mRNA expression (Yap1 mRNA [1]; 5 μM) [% UTC] | human Yap1 mRNA expression (Yap1 mRNA [2]; 0.04 μM) [% UTC] | human Yap1 mRNA expression (Yap1 mRNA [2]; 0.2 μM) [% UTC] | human Yap1 mRNA expression (Yap1 mRNA [2]; 1 μM) [% UTC] | human Yap1 mRNA expression (Yap1 mRNA [2]; 5 μM) [% UTC] | further results |
| --- | --- | --- | --- | --- | --- | --- | --- | --- | --- | --- | --- | --- | --- | --- | --- | --- | --- | --- | --- | --- | --- |
| 1198728 (TATTAGAGTATGTGGC; modified gapmer, further chemistry not given here) [compound 1198728] | 0.88 | 113 | 253 | 423 | 621 | 835 | 988 | 1123 | 1233 | 1239 | 1277 | 1277 | – | – | – | – | – | – | – | – | – |
| 1198440 (AAGTGTATGTCAGAAG; cEt, 2'-MOE, 5-methylcytosine, phosphorothioate modifications, further chemistry not given here) [compound 1198440] | 0.36 | 115 | 279 | 376 | 574 | 651 | 818 | 888 | 857 | 770 | 746 | 834 | 73 | 53 | 21 | 9 | 53 | 18 | 6 | 2 | human Yap1 mRNA expression (Yap1 mRNA [3]; 0.04 μM): 35 % UTC; human Yap1 mRNA expression (Yap1 mRNA [3]; 0.2 μM): 12 % UTC; human Yap1 mRNA expression (Yap1 mRNA [3]; 1 μM): 3 % UTC; human Yap1 mRNA expression (Yap1 mRNA [3]; 5 μM): 2 % UTC; % activation of ERK1/2 (ERK1/2): 88% |
| CGCCGATAAGGTACAC (cEt gapmer, phosphorothioate backbone, further chemistry not given here) [ION 792169, reference compound] | 0.85 | 123 | 262 | 367 | 531 | 774 | 805 | 962 | 1057 | 1171 | 1160 | 1069 | 94 | 83 | 87 | 100 | 86 | 94 | 96 | 101 | human Yap1 mRNA expression (Yap1 mRNA [3]; 0.04 μM): 106 % UTC; human Yap1 mRNA expression (Yap1 mRNA [3]; 0.2 μM): 106 % UTC; human Yap1 mRNA expression (Yap1 mRNA [3]; 1 μM): 111 % UTC; human Yap1 mRNA expression (Yap1 mRNA [3]; 5 μM): 102 % UTC; % activation of ERK1/2 (ERK1/2): 100% |
| 715487 (kA*kT*kT*dA*d[5mC]*dT*dT*d[5mC]*dA*dT*dA*dG*d[5mC]*kT*kT*kA) [compound 715487] | – | – | – | – | – | – | – | – | – | – | – | – | 83 | 70 | 49 | 30 | 74 | 44 | 21 | 11 | human Yap1 mRNA expression (Yap1 mRNA [3]; 0.04 μM): 62 % UTC; human Yap1 mRNA expression (Yap1 mRNA [3]; 0.2 μM): 26 % UTC; human Yap1 mRNA expression (Yap1 mRNA [3]; 1 μM): 9 % UTC; human Yap1 mRNA expression (Yap1 mRNA [3]; 5 μM): 4 % UTC |

— US11214803B2, “Modulators of YAP1 expression” (Ionis Pharmaceuticals, Inc., priority 2019, dated 2022)
